We go through two compounds from US9540299B2, “MTOR-independent activator of TFEB for autophagy enhancement and uses thereof” (Hong Kong Baptist University, priority 2015, dated 2017).

Data set [1] is described as follows: Acute toxicity by single-dose intravenous tail vein injection. To be noted: Sprague-Dawley, rat, in vivo, rats, read-out: medium lethal dose (LD50).
Data set [2] concerns TFEB and autophagy in rats brains. Description: Short-term oral administration in SD rats: TFEB, autophagy and MTOR markers in liver and brain. Format: in vivo. On the procedure: SD rats (n=6 per group) are orally administered by gavage with C1 (10 mg/kg and 25 mg/kg per day) or vehicle (1% CMC-Na) for 24 h. An additional dosage of C1 was given for 6 h before the rats were killed. […] FIG. 9B-9D are bar charts showing quantitative data of various protein expressions in the liver, frontal cortex and striatum. Data are presented as the mean±SD (n=6). *p<0.05 vs. the vehicle treatment. […] Relative quantification (RQ) is presented as means±SD (n=4). *p<0.05 vs. the vehicle treatment.
SD rats (n=6 per group) are orally administered by gavage with C1 (10 mg/kg and 25 mg/kg per day) or vehicle (1% CMC-Na) for 24 h. An additional dosage of C1 is given for 6 h before the rats are killed. […] Data are presented as the mean±SD (n=6). FIG. 10B is western blot (left) and quantitative data (right) showing TFEB nuclear translocation after C1 treatment (n=4).
(§1) All animal care and procedures are approved by the Hong Kong Baptist University Committee on the Use of Human and Animal Subjects in Teaching and Research. Adult male Sprague-Dawley (SD) rats weighted 350-400 g are maintained on ad libitum food and water with a 12-hour light/dark cycle in a controlled environment. For short-term treatment, rats (n=6 per group) are orally administered by gavage with C1 (10 mg/kg and 25 mg/kg per day) or vehicle (1% sodium carbonyl methylcellulose (CMC-Na)) for 24 h. For chronic treatment, C1 (10 mg/kg per day) is given by gavage to rats for 21 days. At the end of each treatment, an additional dosage of C1 is given for 6 h before the rats are killed. Livers and major brain regions dissected are snap-frozen in liquid nitrogen.
Total RNA is extracted from cells and tissues using RNeasy Plus Mini Kit (74134, Qiagen). Reverse transcription is performed using High-Capacity cDNA Reverse Transcription Kit (4368814, Life Technologies). Autophagy and lysosome gene primers are synthesized by Life Technologies and the oligonucleotide sequences are listed in Table 1. Real-time PCR is carried out with the Fast SYBRR Green Master Mix (4385612, Life Technologies) using the ViiA™ 7 Real-Time PCR System (Life Technologies). Fold changes are calculated using the ΔΔCT method and the results were normalized against an internal control (GAPDH or ACTB).
(§2) Cells are lysed on ice in 1× Lysis Buffer (9803, Life Technologies) with complete protease inhibitor mixture (04693124001, Roche Applied Science). Animal tissues are homogenized in nine volumes of ice-cold PBS supplemented with protease inhibitors. Cytosolic and nuclear fractions are isolated using protocols similar to those described previously. Anti-Flag or TFEB antibody is added to the whole cell lysates and Dynabeads® Protein G (10003D, Life Technologies) is used for immunoprecipitation. Proteins are separated by 10-15% SDS-PAGE, transferred, and blotted with the antibodies described. The blots are then incubated with secondary antibodies or the Clean-Blot IP Detection Reagent (21230, Thermo Scientific) at room temperature for 1 h. The protein signals are detected by ECL kit (32106, Pierce) and quantified using ImageJ software.

The next data set deals with endogenous SNCA. The experiment in a line: Chronic (21 days) oral administration in SD rats: autophagy markers, SNCA, tolerability. It counts as in vivo. To be noted: oral 10 mg/kg for 21 days. The method, then:
SD rats (n=6 per group) are orally administered by gavage with C1 (10 mg/kg per day) or vehicle (1% CMC-Na) for 21 days. An additional dosage of C1 is given for 6 h before the rats are killed. FIG. 11A is western blots showing the protein levels as indicated in the liver, frontal cortex and striatum. FIG. 11B-11D are quantitative data protein levels in the liver frontal cortex and striatum. Data are presented as the mean±SD (n=6). *p<0.05 vs. the vehicle treatment.
as §1, §2
Rats receive oral administration of C1 (10 mg/kg) for 21 days. Another dose of C1 is given for 6 h and the average concentration of C1 in brain tissues is 0.849±0.302 μg/g. Then the autophagy markers in the livers and brains are analyzed. Chronic C1 treatment increases the levels of LC3-II in the livers (FIGS. 11 A and B). […] During the treatment procedure, no changes in body weight or behavior abnormalities are observed.

A further data set relates to N2a cells. Description: LC3 puncta and tfLC3 autophagy flux imaging in N2a cells. It counts as cell-based, mouse. On the procedure:
N2a cells are treated with E4 (1 μM) in the presence or absence of CQ for 12 hours. The cells are fixed and stained with LC3 antibody (red) and DAPI (blue). Representative cells are then selected and photographed under a DeltaVision Deconvolution Microscope (GE Healthcare).
N2a cells are transiently transfected with mRFP-GFP-LC3 (tfLC3) plasmid and then treated with E4 (1 μM) or CQ (1 μM) for 12 hours. Representative cells are then selected and photographed under a DeltaVision Deconvolution Microscope (GE Healthcare).
After transiently knockdown the expression of TFEB, N2a cells are treated with E4 (1 μM) for 12 hours, the cells were then stained with LC3 antibody (red) and DAPI (blue).
Cells are seeded on coverslips placed in 24-well plates. For autophagy flux assay, cells are transfected with tfLC3 plasmid for 24 hours and then treated with the indicated compounds. For other assays, at the end drug treatment, slices are fixed with 3.7% paraformaldehyde, permeabilized in 0.2% Triton X-100 and blocked with 5% BSA. After blocking, the slices are stained with anti-TFEB (1:200) or anti-LC3 (1:500) antibodies overnight at 4° C. […] Cells are visualized using the Eclipse 80i fluorescence microscope (Nikon Instruments Inc.) or the DeltaVision Deconvolution Microscope (GE Healthcare).

Where [3] appears, read: short-term oral 10 and 25 mg/kg.

`COc1ccccc1/C=C/C(=O)/C=C/c1ccccc1OC` [C1, 1,5-bis(2-methoxyphenyl)penta-1,4-dien-3-one]: in data set [1], the LD50 was 175 mg/kg. Also, in data set [2] (oral 25 mg/kg), the “interaction between endogenous TFEB and MTOR in the frontal cortex” value was “significantly inhibited”; the “phosphorylation of MTOR and RPS6KB1 in frontal cortex” value was “significantly increases”. In addition, the “expression of LC3-II and TFEB in the liver, frontal cortex and striatum” value in data set [2] (short-term oral 10 mg/kg and 25 mg/kg) was “dose-dependently increases”. Moreover, in data set [2] (setting [3]), the “expression of LAMP1 in the brains” value is “dose-dependently increases” and the “nuclear translocation of TFEB in the brains (western blot)” value is “dose-dependently promotes”. In addition, the “levels of endogenous SQSTM1/p62 or SNCA in the brains” value in data set [2] (short-term oral administration) is given as “does not affect”. Moreover, the “mRNA of TFEB and several autophagy/lysosomal genes in the brain (real-time PCR)” value in data set [2] (short-term oral, frontal cortex) was “up-regulated”. In the data set on endogenous SNCA, the “body weight or behavior abnormalities during treatment” value is reported as “no changes”; the “histological evaluation of major organs (liver, lungs, kidneys, and pancreas)” value was “do not reveal any morphological abnormalities”; the “levels of LC3-II in the livers” value is “increases”; the “levels of TFEB and LC3-II in frontal cortex and striatum” value is listed as “significantly increases”. Also, the “levels of endogenous SQSTM1/p62 and SNCA in rats' brains” value in the data set on endogenous SNCA is “significantly decrease”.

Turning to `O=C(/C=C/c1ccccc1I)/C=C/c1ccccc1I` [E4], in the data set with N2a cells (N2a cells transfected with tfLC3, 12 hours), the “mRFP-GFP-LC3 (tfLC3) puncta (autophagy flux, autolysosome formation)” value is “significantly increases the number of red-only puncta”. The “LC3 punctuates in the presence of CQ” value in the data set with N2a cells (N2a cells, 1 μM, 12 hours) is given as “further enhances”. For the same compound, the “LC3 punctuates compared to vehicle control” value in the data set on N2a cells (N2a cells, 1 μM, 12 hours, endogenous LC3 staining) is on record as “significantly increases”.
